# Results from patent US20250170248A1, “SMARCA DEGRADERS AND USES THEREOF” (Kymera Therapeutics, Inc., priority 2021, published 2025).
# Key:
# [1] = molecular target: T1, SMARCA4 (Homo sapiens, UniProt P51532); experiment: SMARCA4 Western blot degradation in MV4-11 cells; assay type: cell-based; conditions: 24 h; for Dmax: MV4-11, MV4-11 cells, read-out: SMARCA4 MSD MV411 degradation 24 h: average Dmax %; for DC50: MV4-11 cells, read-out: SMARCA4 MSD MV411 degradation 24 h: Mean external-Abs DC50
# T1 construct: SMARCA2/SMARCA4 protein degradation selectivity in MV4-11 cells; endogenous in cells; host or cells: MV4-11
# T1 sequence (P51532 whole entry): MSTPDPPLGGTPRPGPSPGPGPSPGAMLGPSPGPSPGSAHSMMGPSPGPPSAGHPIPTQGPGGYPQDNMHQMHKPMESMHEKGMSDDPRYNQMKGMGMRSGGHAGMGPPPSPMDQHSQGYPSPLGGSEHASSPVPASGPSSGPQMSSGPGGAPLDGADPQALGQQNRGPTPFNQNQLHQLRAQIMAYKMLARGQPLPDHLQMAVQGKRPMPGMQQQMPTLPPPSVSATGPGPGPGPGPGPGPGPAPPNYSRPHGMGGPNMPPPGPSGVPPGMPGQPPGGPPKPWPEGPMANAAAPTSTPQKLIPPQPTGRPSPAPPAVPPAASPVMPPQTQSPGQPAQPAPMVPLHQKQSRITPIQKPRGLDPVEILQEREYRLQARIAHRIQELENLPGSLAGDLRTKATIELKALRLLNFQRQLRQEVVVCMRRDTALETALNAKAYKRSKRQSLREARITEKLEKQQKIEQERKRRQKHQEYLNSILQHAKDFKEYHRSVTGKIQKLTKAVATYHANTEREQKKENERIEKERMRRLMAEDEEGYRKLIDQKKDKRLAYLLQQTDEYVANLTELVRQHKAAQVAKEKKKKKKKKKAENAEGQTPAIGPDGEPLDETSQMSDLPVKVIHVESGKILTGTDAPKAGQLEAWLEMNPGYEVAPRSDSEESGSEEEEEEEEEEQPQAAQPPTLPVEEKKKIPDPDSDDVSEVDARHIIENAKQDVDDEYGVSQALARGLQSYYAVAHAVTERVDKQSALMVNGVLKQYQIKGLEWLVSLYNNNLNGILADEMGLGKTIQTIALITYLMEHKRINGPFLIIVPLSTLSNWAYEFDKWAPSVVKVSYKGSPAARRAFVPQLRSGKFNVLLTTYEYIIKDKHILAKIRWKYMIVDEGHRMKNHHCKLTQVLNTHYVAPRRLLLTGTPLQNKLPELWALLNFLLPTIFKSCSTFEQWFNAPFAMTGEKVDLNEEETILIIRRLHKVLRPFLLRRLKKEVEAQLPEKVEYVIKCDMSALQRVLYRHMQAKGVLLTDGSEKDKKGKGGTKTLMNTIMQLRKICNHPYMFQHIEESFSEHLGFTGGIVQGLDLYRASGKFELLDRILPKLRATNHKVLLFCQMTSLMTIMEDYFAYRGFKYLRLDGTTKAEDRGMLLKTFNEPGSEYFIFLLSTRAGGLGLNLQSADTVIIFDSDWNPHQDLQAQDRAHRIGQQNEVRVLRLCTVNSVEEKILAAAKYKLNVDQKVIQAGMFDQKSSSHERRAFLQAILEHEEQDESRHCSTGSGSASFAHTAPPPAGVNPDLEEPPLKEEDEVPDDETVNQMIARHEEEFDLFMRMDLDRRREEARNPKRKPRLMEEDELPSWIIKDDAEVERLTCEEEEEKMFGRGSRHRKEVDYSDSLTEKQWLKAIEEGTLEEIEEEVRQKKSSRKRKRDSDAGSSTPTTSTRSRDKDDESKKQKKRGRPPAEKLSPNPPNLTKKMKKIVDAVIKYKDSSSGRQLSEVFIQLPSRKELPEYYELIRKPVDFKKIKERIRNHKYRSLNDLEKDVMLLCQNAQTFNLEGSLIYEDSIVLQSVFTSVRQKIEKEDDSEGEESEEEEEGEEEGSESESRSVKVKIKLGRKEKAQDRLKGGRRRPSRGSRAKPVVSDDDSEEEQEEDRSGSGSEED
# Method: Example 11. SMARCA2 and SMARCA4 Western Blot MV4-11 Degradation
# Cells were seeded into 6-well plates (MV4-11:4×10^6 cells/well/1 ml) and 1 ml of 2× compound solution was added into the well to make the final concentration and the plates were mixed well and incubated for 24 hours (No cytotoxicity was observed). The cell were collected with media and spun at 3000 rpm for 5 minutes. The supernatant was aspirated and the well and the cells were washed with cold PBS once and combined for centrifugation again; the supernatant aspirated again. 200 uL pre-chilled RIPA lysis buffer (Boston BioProducts BP-115D) with protease/phosphatase inhibitor (Roche 05892791001/Roche 04906837001) was directly added into the tube to lyze the cells for 20 minutes on ice. The cell lysate were collected into EP tubes and spun at 13000 rpm for 20 minutes and 72 uL supernatant was transferred to a fresh EP tube containing 18 μL of 5× loading buffer (Beyotime Bio P0015) to make the loading samples. The samples were heated to 100° C. for 10 minutes and cooled to RT and microcentrifuged. 20 μL of samples were loaded onto SDS-PAGE gel (Novex, WG1402BOX) and the gel was run at 80 V for 20 minutes and 120 V for 1.5 hours. The samples were electrotransfer to a NC membrane using wet-transfer method with 250 mA for 2.5 hours. The membrane was blocked with LICOR blocking buffer (LI COR,927-50000) for 1 hour. The membrane was washed three times with TBST(CST #9997S), 5 minutes each. Incubation was performed with primary antibody prepared in blocking buffer with 0.1% Tween-20 (Solarbio, P8220) at 4° C. overnight (Anti-SMARCA2/BRM antibody (ab15597) 1:500; Anti-BRG1 antibody [EPR3912](ab108318) 1:1000; Rabbit anti-Bafl80 antibody [EPR15860](Abcam,ab196022) 1:1000; mouse anti-beta-Actin (8H10D10) (CST #3700) 1:10000). The membrane was washed three times with TBST, 5 minutes each. Incubation with secondary antibody was performed for 1 hour at RT (anti-rabbit IgG (Licor,926-32211) 1:5000; anti-mouse IgG (LI-COR, 926-68070) 1:5000). The membrane was washed three times with 5 minutes each and lastly the LiCOR was read.
# The letter codes for SMARCA2/4 degradation potency (DC50) include: A (<1 nM), B (1-10 nM), C (>10-100 nM), and D (>100 nM). The letter codes for the percentage of SMARCA2/4 degradation after 24 hours (Dmax %) include: A (>90% degradation), B (>70-90% degradation), C (50-70% degradation), and D (<50% degradation). The letter codes of SMARCA2/4 selectivity include: A (>500 fold), B (>100-500 fold), C (10-100 fold), and D (<10 fold). Table 8. SMARCA2/4 Selectivity Results
# [2] = molecular target: SMARCA2 (Homo sapiens, UniProt P51531); experiment: SMARCA2 Western blot degradation in MV4-11 cells; assay type: cell-based; set-up: SMARCA2/SMARCA4 protein degradation selectivity in MV4-11 cells; endogenous in cells; host or cells: MV4-11; conditions: for Dmax: MV4-11, MV4-11 cells, read-out: SMARCA2 MSD MV411 degradation 24 h: average Dmax %; for Dmax / DC50: 24 h; for DC50 / Selectivity in MV411: MV4-11 cells; for DC50: read-out: SMARCA2 MSD MV411 degradation 24 h: Mean external-Abs DC50; for Selectivity in MV411: SMARCA2/4 selectivity
# Chain of SMARCA2 (P51531 whole entry): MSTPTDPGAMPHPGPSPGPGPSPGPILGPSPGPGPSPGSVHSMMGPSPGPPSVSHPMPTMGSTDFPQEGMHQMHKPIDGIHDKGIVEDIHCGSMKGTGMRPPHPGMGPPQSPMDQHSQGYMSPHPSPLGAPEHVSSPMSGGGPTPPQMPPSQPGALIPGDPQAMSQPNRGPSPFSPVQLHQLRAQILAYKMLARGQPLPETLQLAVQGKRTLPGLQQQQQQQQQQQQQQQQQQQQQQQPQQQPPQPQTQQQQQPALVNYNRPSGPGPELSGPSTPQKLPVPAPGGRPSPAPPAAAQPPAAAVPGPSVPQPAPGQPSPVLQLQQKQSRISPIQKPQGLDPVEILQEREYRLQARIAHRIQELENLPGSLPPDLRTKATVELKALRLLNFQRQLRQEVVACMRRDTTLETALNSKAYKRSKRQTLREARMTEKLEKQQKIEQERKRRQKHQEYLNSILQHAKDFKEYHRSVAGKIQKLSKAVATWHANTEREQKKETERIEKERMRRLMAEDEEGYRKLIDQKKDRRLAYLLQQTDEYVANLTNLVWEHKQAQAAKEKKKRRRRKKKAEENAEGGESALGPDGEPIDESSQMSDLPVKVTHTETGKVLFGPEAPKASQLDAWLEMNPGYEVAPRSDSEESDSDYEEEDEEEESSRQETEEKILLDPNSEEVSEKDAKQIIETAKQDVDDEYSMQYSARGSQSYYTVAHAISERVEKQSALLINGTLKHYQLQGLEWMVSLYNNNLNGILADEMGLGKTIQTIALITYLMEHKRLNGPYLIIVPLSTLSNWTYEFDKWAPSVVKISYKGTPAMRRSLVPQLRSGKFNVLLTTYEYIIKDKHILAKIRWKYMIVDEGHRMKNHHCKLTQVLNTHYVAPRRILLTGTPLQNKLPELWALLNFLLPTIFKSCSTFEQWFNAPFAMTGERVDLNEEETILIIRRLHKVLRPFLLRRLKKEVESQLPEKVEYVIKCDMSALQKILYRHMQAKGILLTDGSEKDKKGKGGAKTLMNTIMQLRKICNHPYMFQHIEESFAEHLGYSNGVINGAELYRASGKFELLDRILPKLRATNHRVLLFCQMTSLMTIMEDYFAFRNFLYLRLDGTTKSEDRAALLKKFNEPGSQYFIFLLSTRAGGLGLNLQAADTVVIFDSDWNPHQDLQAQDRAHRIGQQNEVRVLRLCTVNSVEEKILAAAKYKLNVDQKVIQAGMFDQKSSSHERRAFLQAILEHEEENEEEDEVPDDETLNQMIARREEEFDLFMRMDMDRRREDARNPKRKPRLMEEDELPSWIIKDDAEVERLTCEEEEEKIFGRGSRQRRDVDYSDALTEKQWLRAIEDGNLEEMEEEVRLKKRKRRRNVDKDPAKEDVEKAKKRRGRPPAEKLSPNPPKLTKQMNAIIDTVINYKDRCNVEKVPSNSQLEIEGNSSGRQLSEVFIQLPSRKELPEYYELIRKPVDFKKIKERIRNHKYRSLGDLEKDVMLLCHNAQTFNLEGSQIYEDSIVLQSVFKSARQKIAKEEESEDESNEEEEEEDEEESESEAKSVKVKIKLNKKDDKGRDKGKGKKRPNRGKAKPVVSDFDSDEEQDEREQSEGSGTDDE
Structure (SMILES),Dmax [1] [%],DC50 [1] [nM],Dmax [2] [%],DC50 [2] [nM],Selectivity in MV411 [2]
Cc1ncsc1-c1ccc(CNC(=O)[C@@H]2C[C@@H](O)CN2C(=O)[C@@H](NC(=O)C2(F)CC2)C(C)(C)C)c(OC2CN(CCN3CCC(c4cnc(N5CCc6[nH]c7nnc(-c8ccccc8O)cc7c6C5C)nc4)CC3)C2)c1 (stereo partly shown) [I-44],70 to 90,> 100,70 to 90,10 to 100,D (D (<10 fold))
Cc1ncsc1-c1ccc(CNC(=O)[C@@H]2C[C@@H](O)CN2C(=O)[C@@H](NC(=O)N2CCC3(CC2)CC(N2CCC(c4cnc(N5CCN6c7cc(-c8ccccc8O)nnc7NC[C@H]6C5)nc4)CC2)C3)C(C)(C)C)cc1 [I-67],< 50,> 100,< 50,> 100,C (C (10-100 fold))
Cc1ncsc1-c1ccc(CNC(=O)[C@@H]2C[C@@H](O)CN2C(=O)[C@@H](NC(=O)N2CCC3(CCC(N4CCC(c5cnc(N6CCN7c8cc(-c9ccccc9O)nnc8NC[C@H]7C6)nc5)CC4)CC3)CC2)C(C)(C)C)cc1 [I-68],< 50,> 100,50 to 70,10 to 100,C (C (10-100 fold))

# Results, then the molecule that gave them:
Dmax [1] [%],DC50 [1] [nM],Dmax [2] [%],DC50 [2] [nM],Selectivity in MV411 [2],Structure (SMILES)
> 90,1 to 10,> 90,< 1,D (D (<10 fold)),Cc1ncsc1-c1ccc(CNC(=O)[C@@H]2C[C@@H](O)CN2C(=O)[C@@H](NC(=O)N2CC3(CCC(N4CCC(c5cnc(N6CCN7c8cc(-c9ccccc9O)nnc8NC[C@H]7C6)nc5)CC4)CC3)C2)C(C)(C)C)cc1 [I-69]
,> 100,,1 to 10,A (A (>500 fold)),Cc1ncsc1-c1ccc(CNC(=O)[C@@H]2C[C@@H](O)CN2C(=O)[C@@H](NC(=O)[C@H]2CCC3(CC2)C[C@H](N2CCC(c4cnc(N5CCN6c7cc(-c8ccccc8O)nnc7NC[C@H]6C5)nc4)CC2)C3)C(C)(C)C)cc1 (stereo partly shown) [I-71]
70 to 90,1 to 10,70 to 90,< 1,D (D (<10 fold)),Cc1ncsc1-c1ccc(CNC(=O)[C@@H]2C[C@@H](O)CN2C(=O)[C@@H](NC(=O)N2CC3(CC(N4CCN(c5ccnc(N6CCN7c8cc(-c9ccccc9O)nnc8NC[C@H]7C6)n5)CC4)C3)C2)C(C)(C)C)cc1 [I-72]
